Laboratory results published in publication PMC11322497 (Frontiers in Pharmacology, 2024).

System: high fat diet (HFD) rabbit model of metabolic-associated steatohepatitis (MASH)
Assay: HFD rabbit study, acute 5-day treatment: liver markers mRNA expression by RT-PCR
Format: in vivo, New Zealand White rabbits
Details: 30 mg/kg p.o. 5 days, week 12, mean ± SD, n = 3
Method: After 1 week of standard diet, animals (n = 12) were randomly assigned to the following groups (Table 1A): • Control rabbits continued to receive a regular diet (RD) for 12 weeks and were treated for 5 days (days 1–5, p.o.), during the last week before culling, with either vehicle; RD+1W Veh group] or GB1211 (30 mg/kg; RD + 1W 30 mg group); • Rabbits received a high fat diet (HFD) for 12 weeks (RD implemented with 0.5% cholesterol and 2.5% vegetable fat) and were treated for 5 days (days 1–5, p.o.), during the last week before culling, with either vehicle (HFD + 1W Veh group) or GB1211 (30 mg/kg; HFD + 1W 30 mg group).
TRIzol reagent (Life Technologies, Paisley, United Kingdom) and/or RNeasy Mini Kit (Qiagen, Hilden, Germany) were used to isolate total RNA from rabbit liver specimens. RNA concentration and quality were measured using a Nanodrop ND-1000 (Thermo Fisher Scientific) at 260 nm and 280 nm. The OD 260/280 absorbance ratios were between 2.0 and 2.1 for all samples, to confirm RNA integrity and purification. cDNA synthesis was carried out using the iScript™ cDNA Synthesis Kit (Bio-Rad Laboratories, Hercules, CA), with 100 ng of mRNA in 20 µL reaction volume in accordance with the following protocol: 5 min at 25°C, 20 min at 46°C and 5 min at 85°C, followed by refrigeration at 4°C.
Semi-quantitative real-time RT-PCR (qRT-PCR) amplification and detection was performed with SsoAdvanced™ universal SYBR® Supermix and a CFX96 Two-Color Real-Time PCR Detection System (both Bio-Rad Laboratories) with the following thermal cycler conditions: 40 cycles at 95°C for 15 s and 60°C for 1 min. Specific PCR primers for rabbit target genes were designed on sequences available at the National Center for Biotechnology Information GenBank (http://www.ncbi.nlm.nih.gov) or Ensemble Genome (http://www.ensembl.org).
The 18S ribosomal RNA subunit was quantified with a predeveloped assay (Hs99999901_s1, Life Technologies) and used as the housekeeping gene for the relative quantitation of the target genes based on the comparative threshold cycle (Ct) 2^−ΔΔCt method ([Livak and Schmittgen, 2001]), with some modifications. In detail, we used the vehicle control groups as the calibrator in each analysis, so that the calculations would provide the fold-change of the other groups relative to controls.

With OC[C@H]1O[C@H](Sc2cncc(Br)c2)[C@H](O)[C@@H](n2cc(-c3cc(F)c(F)c(F)c3)nn2)[C@H]1O [selvigaltin] the “CD8 liver mRNA expression” value (HFD rabbits) was 1.76 ± 0.20 fold-change vs. RD+1W Veh, the “COL1A1 liver mRNA expression” value (HFD rabbits) was 20.12 ± 15.24 fold-change vs. RD+1W Veh and the “COL3A1 liver mRNA expression” value (HFD rabbits) was 9.96 ± 7.51 fold-change vs. RD+1W Veh. For the same molecule, the “COX-2 liver mRNA expression” value (HFD rabbits) was 8.81 ± 10.30 fold-change vs. RD+1W Veh, the “EDN1 liver mRNA expression” value (HFD rabbits) was 1.32 ± 0.21 fold-change vs. RD+1W Veh and the “EDNRA liver mRNA expression” value (HFD rabbits) was 7.73 ± 5.69 fold-change vs. RD+1W Veh. For the same molecule, the “EDNRB liver mRNA expression” value (HFD rabbits) was 2.23 ± 0.95 fold-change vs. RD+1W Veh, the “FN1 liver mRNA expression” value (HFD rabbits) was 0.98 ± 0.14 fold-change vs. RD+1W Veh and the “FOXP3 liver mRNA expression” value (HFD rabbits) was 5.15 ± 2.78 fold-change vs. RD+1W Veh. For the same molecule, the “IGF-1 liver mRNA expression” value (HFD rabbits) was 0.34 ± 0.08 fold-change vs. RD+1W Veh, the “LGALS3 liver mRNA expression” value (HFD rabbits) was 116.95 ± 77.56 fold-change vs. RD+1W Veh and the “PAI-1 liver mRNA expression” value (HFD rabbits) was 14.10 ± 16.47 fold-change vs. RD+1W Veh. For the same molecule, the “SNAI2 liver mRNA expression” value (HFD rabbits) was 1.55 ± 0.26 fold-change vs. RD+1W Veh, the “TBET liver mRNA expression” value (HFD rabbits) was 0.74 ± 0.14 fold-change vs. RD+1W Veh and the “TGFβ1 liver mRNA expression” value (HFD rabbits) was 4.25 ± 2.06 fold-change vs. RD+1W Veh. For the same molecule, the “TGFβ3 liver mRNA expression” value (HFD rabbits) was 2.97 ± 1.96 fold-change vs. RD+1W Veh, the “αSMA liver mRNA expression” value (HFD rabbits) was 5.77 ± 3.34 fold-change vs. RD+1W Veh and the “CD8 liver mRNA expression” value (RD rabbits) was 1.14 ± 0.81 fold-change vs. RD+1W Veh. For the same molecule, the “COL1A1 liver mRNA expression” value (RD rabbits) was 0.82 ± 0.40 fold-change vs. RD+1W Veh, the “COL3A1 liver mRNA expression” value (RD rabbits) was 0.47 ± 0.21 fold-change vs. RD+1W Veh and the “COX-2 liver mRNA expression” value (RD rabbits) was 2.52 ± 1.59 fold-change vs. RD+1W Veh. For the same molecule, the “EDN1 liver mRNA expression” value (RD rabbits) was 0.91 ± 0.20 fold-change vs. RD+1W Veh, the “EDNRA liver mRNA expression” value (RD rabbits) was 0.89 ± 0.29 fold-change vs. RD+1W Veh and the “EDNRB liver mRNA expression” value (RD rabbits) was 0.79 ± 0.19 fold-change vs. RD+1W Veh. For the same molecule, the “FN1 liver mRNA expression” value (RD rabbits) was 1.05 ± 0.12 fold-change vs. RD+1W Veh, the “FOXP3 liver mRNA expression” value (RD rabbits) was 0.86 ± 0.12 fold-change vs. RD+1W Veh and the “IGF-1 liver mRNA expression” value (RD rabbits) was 1.01 ± 0.19 fold-change vs. RD+1W Veh. For the same molecule, the “LGALS3 liver mRNA expression” value (RD rabbits) was 1.27 ± 1.04 fold-change vs. RD+1W Veh, the “PAI-1 liver mRNA expression” value (RD rabbits) was 2.63 ± 1.79 fold-change vs. RD+1W Veh and the “SNAI2 liver mRNA expression” value (RD rabbits) was 1.01 ± 0.31 fold-change vs. RD+1W Veh. For the same molecule, the “TBET liver mRNA expression” value (RD rabbits) was 0.75 ± 0.20 fold-change vs. RD+1W Veh, the “TGFβ1 liver mRNA expression” value (RD rabbits) was 0.95 ± 0.31 fold-change vs. RD+1W Veh and the “TGFβ3 liver mRNA expression” value (RD rabbits) was 0.70 ± 0.08 fold-change vs. RD+1W Veh. The “αSMA liver mRNA expression” value (RD rabbits) was 0.96 ± 0.59 fold-change vs. RD+1W Veh.
